Experimental data: article PMC11652885, “Natural volatiles preventing mosquito biting: An integrated screening platform for accelerated discovery of ORco antagonists” (The Journal of Biological Chemistry, 2024)

test system: Aedes albopictus; assay: Hand in a cage repellence bioassay (human hand landing counts); assay type: in vivo; conditions: dose 50 nmole/cm^2; preliminary tests, data not shown

Question: With `CCCC=CC=CC=O` [compound 39, 2,4-Octadienal] as the molecule, how does the “repellence index (RI)” value read?
Answer: Its value is 30%-50%.

Question: Which “repellence index (RI)” value does the source give for `CCCCC/C=C\CCO` [compound 54, (Z)-3-Nonen-1-ol] here?
Answer: Its value is 30%-50%.

Question: `CC1(C)C2CC3OC3(C)C1C2` (stereo not drawn) [compound 62, α-Pinene oxide] was tested. Which “repellence index (RI)” value did it give?
Answer: The value was 30%-50%.

Question: With `CC1(C)C2CCC1(C)C(O)C2` (centres unmarked) [compound 64, Borneol] as the molecule, how does the “repellence index (RI)” value read?
Answer: Its value is “high activities”.

Question: Which “repellence index (RI)” value does the source give for `Cc1ccc2ccccc2n1` [compound 66, 2-Methylquinoline] here?
Answer: Its value is “high activities”.

Question: How did the “repellence index (RI)” value turn out when `CC(C)=CCC[C@](C)(O)[C@@H]1CC=C(C)CC1` [compound 77, α-Bisabolol] was run?
Answer: Its value is 30%-50%.

Question: Which “repellence index (RI)” value does the source give for `CC(C)CCCCCCCCC=CCC#N` [compound 83, 13-Methyltetradec-3-ene nitrile] here?
Answer: Its value is “high activities”.

Question: `CC(C)C/C=C1/C(=O)OCC1C` (centres unmarked) [compound 98, (E)-3-Methyl-2-(3-methylbutyliden)-4-butanolide] was tested. Which “repellence index (RI)” value did it give?
Answer: The value was “high activities”.
